For 11 compounds, T/C results are on record in PubChem BioAssay AID286 (DTP/NCI, 2004).

Where “and” joins values, the source holds several entries; their conditions need not be identical. Equal values may be shown once. Inconclusive results and toxic doses are left out. Starred links: 1 amine or outer side, 2 acyl side, 3 side chain; linkers in the order of their positions; H or OH if unused. Positions of bridges follow the written chain, without caps; N, C: chain ends. Non-standard residues stand in square brackets, D forms with d. Residues, ends and D or L forms follow the SMILES beside them. Chains are numbered I, II in the order given. ξ: configuration not given here. *: point of attachment. Quinaldoyl(3-OH,6-OMe) = COc1ccc2nc(C(=O)*)c(O)cc2c1; X2 = CC(=O)OC1CC=NN([*:1])C1C(=O)[*:2]; ξNMeVal(3-OH) = CNC(C(=O)O)C(C)(C)O; X3 = O=C(C1CCCNN1[*:1])[*:2]; Sar = CNCC(=O)O

In the test the test system is BDF1 mice, M5076 sarcoma ip, median survival T/C. The test can be described thus: NCI In Vivo Anticancer Drug Screen. Data for tumor model Sarcoma M5076 (intraperitoneal) in B6D2F1 (BDF1) mice. Particulars: endpoint: median survival time, higher = longer survival. Here is the method: The antitumor activity of compounds was measured in mice bearing transplantable tumors. Survival or tumor size were measured and the results are expressed as the measurement made in the treated group (T) divided by the measurement made in the vehicle treated control group (C). The tumor model used in this assay is Sarcoma M5076 (intraperitoneal) in B6D2F1 (BDF1) mice

The mark [1] stands for this setting: dose: 25.0 mg/kg/injection, schedule: Q04DX004 (ip), vehicle: saline with Tween-80.
The mark [2] stands for this setting: dose: 50.0 mg/kg/injection, schedule: Q04DX004 (ip), vehicle: saline with Tween-80.
Where [3] appears, read: dose: 100.0 mg/kg/injection, schedule: Q04DX004 (ip), vehicle: saline with Tween-80.

Turning to `Cc1nc(C(Cl)(Cl)Cl)[nH]c(=O)c1SCCO`, the T/C (dose: 50.0 mg/kg/injection, schedule: Q04DX004 (ip), vehicle: distilled water + alcohol) was 101 % of control; the T/C (dose: 100.0 mg/kg/injection, schedule: Q04DX004 (ip), vehicle: distilled water + alcohol) was 93 % of control; the T/C (dose: 200.0 mg/kg/injection, schedule: Q04DX004 (ip), vehicle: distilled water + alcohol) was 94 % of control; the T/C (dose: 400.0 mg/kg/injection, schedule: Q04DX004 (ip), vehicle: distilled water + alcohol) was 96 % of control.

With `CC(=O)/C(=C\c1ccc(Cl)c(Cl)c1)C(=O)CCN(C)C`, the T/C runs as follows: (dose: 12.5 mg/kg/injection, schedule: Q04DX004 (ip), vehicle: saline) 100 % of control; (dose: 25.0 mg/kg/injection, schedule: Q04DX004 (ip), vehicle: saline) 97 % of control; (dose: 50.0 mg/kg/injection, schedule: Q04DX004 (ip), vehicle: saline) 101 % of control; (dose: 100.0 mg/kg/injection, schedule: Q04DX004 (ip), vehicle: saline) 86 % of control.

Take `O=C1C2C3C=CC(C2C(=O)N1CO)C1C2C(=O)N(CO)C(=O)C2C31` (stereo unspecified): the T/C was 106 % of control (dose: 12.5 mg/kg/injection, schedule: Q04DX004 (ip), vehicle: water); 105 % of control (dose: 25.0 mg/kg/injection, schedule: Q04DX004 (ip), vehicle: water); 106 % of control (dose: 50.0 mg/kg/injection, schedule: Q04DX004 (ip), vehicle: water).

As to `N#CC(C#N)=NNc1ccc2cn[nH]c2c1`, the T/C reads like this: (dose: 12.5 mg/kg/injection, schedule: Q04DX004 (ip), vehicle: Klucel (hydroxypropylcellulose) (HPC)) 105 % of control; (dose: 25.0 mg/kg/injection, schedule: Q04DX004 (ip), vehicle: Klucel (hydroxypropylcellulose) (HPC)) 95 % of control; (dose: 50.0 mg/kg/injection, schedule: Q04DX004 (ip), vehicle: Klucel (hydroxypropylcellulose) (HPC)) 90 % of control; (dose: 100.0 mg/kg/injection, schedule: Q04DX004 (ip), vehicle: Klucel (hydroxypropylcellulose) (HPC)) 103 % of control.

With `CC(=O)C[n+]1ccc(C)cc1Sc1ccccc1C`, the T/C was 104 % of control (dose: 12.5 mg/kg/injection, schedule: Q04DX004 (ip), vehicle: saline with Tween-80); 98 % of control under setting [1]; 92 % of control under setting [2]; 94 % of control under setting [3].

`COc1cc(NCc2ccc3nc(N)nc(N)c3c2C)cc(OC)c1OC`: the T/C is 173 % of control (dose: 10.0 mg/kg/injection, schedule: Q01DX009 (ip), vehicle: Klucel (hydroxypropylcellulose) (HPC)); 168 % of control (dose: 15.0 mg/kg/injection, schedule: Q04DX005 (ip), vehicle: Klucel (hydroxypropylcellulose) (HPC)); 173 % of control (dose: 20.0 mg/kg/injection, schedule: Q01DX009 (ip), vehicle: Klucel (hydroxypropylcellulose) (HPC)); 171 % of control (dose: 30.0 mg/kg/injection, schedule: Q04DX005 (ip), vehicle: Klucel (hydroxypropylcellulose) (HPC)); 206 % of control (dose: 60.0 mg/kg/injection, schedule: Q04DX005 (ip), vehicle: Klucel (hydroxypropylcellulose) (HPC)).

Take `Nc1n[nH]c2ccccc12`: the T/C is 112 % of control (dose: 50.0 mg/kg/injection, schedule: Q04DX004 (ip), vehicle: acid diluted with saline); 113 % of control (dose: 100.0 mg/kg/injection, schedule: Q04DX004 (ip), vehicle: acid diluted with saline); 112 % of control (dose: 200.0 mg/kg/injection, schedule: Q04DX004 (ip), vehicle: acid diluted with saline).

On to `O=C(O)CC(NC(=O)CP(=O)(O)O)C(=O)O` (stereo unspecified), for which the T/C runs as follows: (dose: 50.0 mg/kg/injection, schedule: Q04DX005 (ip), vehicle: saline) 164 % of control; (dose: 100.0 mg/kg/injection, schedule: Q04DX005 (ip), vehicle: saline) 180 % of control; (dose: 108.0 mg/kg/injection, schedule: Q04DX004 (ip), vehicle: saline) 178 % of control; (dose: 180.0 mg/kg/injection, schedule: Q04DX004 (ip), vehicle: saline) 195 % of control; (dose: 200.0 mg/kg/injection, schedule: Q04DX005 (ip), vehicle: saline) 165 % of control; (dose: 300.0 mg/kg/injection, schedule: Q04DX004 (ip), vehicle: saline) 195 % of control. Besides, the T/C was 184 % of control and 200 % of control (dose: 400.0 mg/kg/injection, schedule: Q04DX005 (ip), vehicle: saline); 204 % of control (dose: 500.0 mg/kg/injection, schedule: Q04DX004 (ip), vehicle: saline); 216 % of control (dose: 833.0 mg/kg/injection, schedule: Q04DX004 (ip), vehicle: saline).

Turning to `COc1cccc2c1C(=O)c1c(O)c3c(c(O)c1C2=O)C[C@@](O)(C(=O)CO)C[C@@H]3OC1CC(N)C(O)C(C)O1` (stereo partly specified), the T/C by setting is: (dose: 0.5 mg/kg/injection, schedule: Q04DX005 (ip), vehicle: saline) 196 % of control; (dose: 0.75 mg/kg/injection, schedule: Q04DX005 (ip), vehicle: saline) 204 % of control; (dose: 1.0 mg/kg/injection, schedule: Q04DX005 (ip), vehicle: saline) 197 % of control; (dose: 1.5 mg/kg/injection, schedule: Q01DX007 (ip), vehicle: saline) 171 % of control; (dose: 1.5 mg/kg/injection, schedule: Q04DX005 (ip), vehicle: saline) 277 % of control; (dose: 2.0 mg/kg/injection, schedule: Q04DX004 (ip), vehicle: saline) 160 % of control. For the same compound, the T/C (dose: 2.0 mg/kg/injection, schedule: Q04DX005 (ip), vehicle: saline) is 401 % of control; the T/C (dose: 2.1 mg/kg/injection, schedule: Q01DX007 (ip), vehicle: saline) is 176 % of control; the T/C (dose: 3.0 mg/kg/injection, schedule: Q01DX007 (ip), vehicle: saline) is 216 % of control; the T/C (dose: 3.0 mg/kg/injection, schedule: Q04DX005 (ip), vehicle: saline) is 308 % of control; the T/C (dose: 3.4 mg/kg/injection, schedule: Q04DX003 (ip), vehicle: saline) was 152 % of control; the T/C (dose: 4.0 mg/kg/injection, schedule: Q04DX004 (ip), vehicle: saline) is 190 % of control. The T/C (dose: 4.0 mg/kg/injection, schedule: Q04DX005 (ip), vehicle: saline) was 208 % of control; the T/C (dose: 5.0 mg/kg/injection, schedule: Q04DX003 (ip), vehicle: saline) is 176 % of control; the T/C (dose: 6.0 mg/kg/injection, schedule: Q04DX005 (ip), vehicle: saline) was 308 % of control; the T/C (dose: 7.0 mg/kg/injection, schedule: Q01DX001 (ip), vehicle: saline) is 159 % of control; the T/C (dose: 7.5 mg/kg/injection, schedule: Q04DX003 (ip), vehicle: saline) is 120 % of control; the T/C (dose: 8.0 mg/kg/injection, schedule: Q04DX004 (ip), vehicle: saline) was 190 % of control. Also, the T/C runs as follows: (dose: 10.0 mg/kg/injection, schedule: Q01DX001 (ip), vehicle: saline) 159 % of control; (dose: 15.0 mg/kg/injection, schedule: Q01DX001 (ip), vehicle: saline) 185 % of control.

Turning to `COc1ccc2nc(C(=O)NC3COC(=O)C(C(C)(C)O)N(C)C(=O)CN(C)C(=O)CNC(=O)C4CCCNN4C(=O)C(NC(=O)c4nc5ccc(OC)cc5cc4O)COC(=O)C(C(C)(C)O)N(C)C(=O)CN(C)C(=O)CNC(=O)C4C(OC(C)=O)CC=NN4C3=O)c(O)cc2c1` (stereo unspecified) (I: {Quinaldoyl(3-OH,6-OMe)}-S[X2]G[Sar][ξNMeVal(3-OH)] / II: {Quinaldoyl(3-OH,6-OMe)}-S[X3]G[Sar][ξNMeVal(3-OH)]; ester I:1-II:C, I:C-II:1; configuration not given here), the T/C by setting is: (dose: 10.0 micrograms/kg/injection, schedule: Q01DX009 (ip), vehicle: DMSO) 155 % of control; (dose: 12.5 micrograms/kg/injection, schedule: Q01DX009 (ip), vehicle: DMSO) 157 % of control; (dose: 20.0 micrograms/kg/injection, schedule: Q01DX009 (ip), vehicle: DMSO) 190 % of control; (dose: 25.0 micrograms/kg/injection, schedule: Q01DX009 (ip), vehicle: DMSO) 170 % of control; (dose: 50.0 micrograms/kg/injection, schedule: Q01DX009 (ip), vehicle: DMSO) 179 % of control.

Take `Cc1ccc2c(c1)n([O-])c1cc(Cl)ccc1[n+]2=O`: the T/C was 109 % of control under setting [1]; 112 % of control under setting [2]; 110 % of control under setting [3]; 110 % of control (dose: 200.0 mg/kg/injection, schedule: Q04DX004 (ip), vehicle: saline with Tween-80); 115 % of control (dose: 400.0 mg/kg/injection, schedule: Q04DX004 (ip), vehicle: saline with Tween-80).
